The test system of experiment [1] is CviR-dependent violacein production. Description: Violacein production in wild type C. violaceum, dose-response. Format: cell-based. The following applies: Chromobacterium violaceum, read-out: IC50 for inhibition of violacein production. The procedure: E. coli strains were grown overnight in LB medium with antibiotics at 37° C. and sub-cultured into fresh medium at a 1:100 dilution. Various AHL and antagonists were added at constant concentrations or titrated as stated. The gfp was measured on an Envision plate reader after 5 hours of growth at 37° C. C. violaceum strains were grown aerobically in 1 mL Nutrient Broth plus 1 mM tryptophan at 30° C. […] Cells were collected via centrifugation at 13000 rpm for 15 minutes. Pellets were resuspended in 1 mL of methanol and incubated at 42° C. for 1 hour. Samples were again collected via centrifugation at 13000 rpm for 5 minutes and analyzed for violacein by measuring optical density at 568 nm on a Beckman Coulter DU-800 spectrophotometer. For the dose-response analyses, all assays were performed in triplicate.
To determine if 4606-4237 inhibits violacein production specifically by interfering with CviR, 4606-4237 was tested for antagonism of CviR in the recombinant E. coli vioA-gfp assay. For these experiments, C6-HSL was held constant at 500 nM, while 4606-4237 was titrated from 1.3 nM to 100 μM (FIG. 3D). This concentration of native C6-HSL signal induces maximal gfp production in this heterologous assay system. Importantly, no C. violaceum components other than CviR are present in the recombinant E. coli assay strain. Thus, any inhibition occurring would be due to a specific interaction between the antagonist molecule 4606-4237 and CviR rather than an interaction of 4606-4237 with some unknown component required for violacein production in C. violaceum. […] Thus, 4606-4237 functions by disabling CviR-mediated activation of gene expression in both the C. violaceum in vivo violacein assay and the recombinant E. coli vioA-gfp assay.

In experiment [2] the test system is C. violaceum killing of C. elegans. Description: C. elegans life span assay following C. violaceum infection. The following applies: wild type C. violaceum, CL 20 μM; untreated two days. The format is in vivo, Caenorhabditis elegans. The procedure: Life Span Assays. C. elegans lifespan assays were completed with at least 100 wild type N2 worms for each condition. C. elegans eggs were harvested from a large population of gravid adults using a standard bleaching protocol (30 mL 5% bleach, 15 mL N KOH, 55 mL DH2O). Harvested eggs were placed on lawns of fresh E. coli OP50 and allowed to hatch and grow to the young adult (L4) stage before being moved onto lawns of C. violaceum. Worms were scored for survival each day and transferred to new C. violaceum lawns every two days until all worms had expired.
In the presence of the mutant strain, the median C. elegans lifespan is twelve days (FIG. 7A; DMSO control). Exogenous addition of the native autoinducer molecule, C6-HSL restored quorum sensing and complemented the cviI mutant's ability to kill C. elegans (median lifespan=4 days, FIG. 7A).

The target in a further experiment is CviR (Chromobacterium violaceum, UniProt D3W065). Format: binding. Further details: made in house; host or cells: E. coli BL21(DE3) pLysS, plasmid pET23b. The following applies: for DNA binding of ligand-loaded CviR to vioA promoter: CviR 100-500 nM. On the procedure:
CviR Overexpression and Purification. CviR was overexpressed in BL21(DE3) pLysS by growing an overnight culture in LB supplemented with 100 μg/mL ampicillin and 10 μg/mL chloramphenicol. The culture was diluted 1:50 into fresh LB supplemented with 100 μg/mL ampicillin and 10 μg/mL chloramphenicol and grown shaking at 37° C. to an OD600 of 0.4. Various AHL or antagonist molecules were added to at 50 μM and incubated an additional 30 minutes at 30° C., after which expression was induced by the addition of 100 μM IPTG (isopropyl-β-D-thiogalactopyranoside) for 4 hours at 30° C. Cells were harvested by centrifugation and lysed in 20 mM imidazole pH 8.0, 100 mM NaCl, 0.5 mM EDTA and 5% glycerol via a Micro-fluidizer processor (MicroFluidics). Protein was purified via ion-exchange using a Hitrap Heparin HP column (GE Healthcare). Protein was eluted with a 100 mM to 1 M NaCl gradient. Fractions containing CviR were pooled and diluted in lysis buffer devoid of NaCl, and then further purified by cation exchange chromatography using a Hitrap SP HP column (GE Healthcare). CviR was eluted with a 100 mM to 1 M NaCl gradient.
DNA probes for gel mobility shift analyses were generated by standard polymerase chain reaction using primers with a 5′ 6-FAM (fluorescein) tag (Integrated DNA Technologies). The target probe contained about 100 nucleotides of the vioA promoter. The control probe contained 300 bases of vioB intergenic DNA. 37 ng of each probe was incubated for 20 minutes at room temperature with the indicated amounts of CviR (0, 0.1, 0.2, 0.3, 0.4 and 0.5 μM) and 1 μg/μL poly-dIdC in 1× Gel shift buffer (40 mM Tris HCl pH 8.0, 100 mM KCL, 2 mM EDTA, 2 mM DTT, 10% glycerol, 200 μg/mL BSA). Gel mobility shifts were performed on 6% TGE-polyacrylamide gels and visualized using a Storm 860 Imaging System (Molecular Dynamics).
To further investigate the mechanism underlying antagonism of the CviR receptor, an examination was undertaken of whether the soluble CviR antagonist complexes were incapable of binding DNA, and thus unable to activate transcription. […] The CviR protein was also purified in complex with each of the synthetic antagonist molecules, 4606-4237, CTL, and CL. Performance of DNA gel mobility shift analyses enabled assessment of the binding of each of these purified, loaded protein complexes to the vioA promoter.
The reciprocal experiment tested whether C6-HSL could replace CL bound to CviR.

Chain of CviR (D3W065 1-265): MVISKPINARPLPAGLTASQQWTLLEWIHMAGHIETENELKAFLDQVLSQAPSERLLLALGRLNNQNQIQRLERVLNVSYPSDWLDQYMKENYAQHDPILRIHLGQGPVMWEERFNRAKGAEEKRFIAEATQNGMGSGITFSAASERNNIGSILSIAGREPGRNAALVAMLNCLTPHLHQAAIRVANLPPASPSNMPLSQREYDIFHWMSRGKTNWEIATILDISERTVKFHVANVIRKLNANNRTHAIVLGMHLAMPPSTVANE

The term IC50 denotes the midpoint of a concentration-inhibition curve. Take `O=C(CCCOc1ccc(Cl)cc1)NC1CCOC1=O` (stereo not drawn) [CL, chlorolactone]: in experiment [1], the 50% inhibitory concentration (IC50) is 295 nM. In addition, the C. elegans lifespan result in experiment [2] was “seven”. For the same compound, the “ligand exchange on loaded CviR, effect on DNA binding” value on CviR (500 nM loaded CviR, competing ligand 0-10 μM) is on record as “DNA binding decreased in a dose dependent manner”. Moreover, the “DNA binding of ligand-loaded CviR to vioA promoter” value at CviR is recorded as “no ability to bind DNA”.
`O=C(CCCOc1ccc(Cl)cc1)NC1CCSC1=O` (stereo not drawn) [CTL, Chloro-thiolactone]: in experiment [1], the concentration for half-maximal inhibition (IC50) was 723 nM. At CviR, the “DNA binding of ligand-loaded CviR to vioA promoter” value is reported as “no ability to bind DNA”.

Source of the values: US9468624B2, “Small molecule antagonists of bacterial quorum-sensing receptors” (priority 2008, dated 2016).
